The source of these data is PubChem BioAssay AID1259407 (Chemical Carcinogenesis Research Information System (CCRIS), 2018).

The source made the active and inactive calls. No rule for the calls is given here.

The series deals with CCRIS mutagenicity, Ames/micronucleus/aberration tests. The series can be described thus: CCRIS mutagenicity studies.
Where [1] appears, read: Test System: AMES SALMONELLA TYPHIMURIUM, Strain/Indicator: TA98, Metabolic Activation: HAMSTER, LIVER, S-9, AROCLOR 1254, Method: STANDARD PLATE.
The mark [2] stands for this setting: Test System: AMES SALMONELLA TYPHIMURIUM, Strain/Indicator: TA98, Metabolic Activation: NONE, Method: STANDARD PLATE.
Where [3] appears, read: Test System: AMES SALMONELLA TYPHIMURIUM, Strain/Indicator: TA98, Metabolic Activation: RAT, LIVER, S-9, AROCLOR 1254, Method: STANDARD PLATE.
Setting [4] is: Test System: AMES SALMONELLA TYPHIMURIUM, Strain/Indicator: TA100, Metabolic Activation: HAMSTER, LIVER, S-9, AROCLOR 1254, Method: STANDARD PLATE.
Setting [5] is: Test System: AMES SALMONELLA TYPHIMURIUM, Strain/Indicator: TA100, Metabolic Activation: NONE, Method: STANDARD PLATE.
Where [6] appears, read: Test System: AMES SALMONELLA TYPHIMURIUM, Strain/Indicator: TA100, Metabolic Activation: RAT, LIVER, S-9, AROCLOR 1254, Method: STANDARD PLATE.
Where [7] appears, read: Test System: AMES SALMONELLA TYPHIMURIUM, Strain/Indicator: TA1538, Metabolic Activation: NONE, Method: STANDARD PLATE.
The mark [8] stands for this setting: Test System: MOUSE LYMPHOMA, Strain/Indicator: L5178Y (TK+/TK-), Metabolic Activation: RAT, LIVER, S-9, AROCLOR 1254, Method: SUSPENSION/PLATE.
The mark [9] stands for this setting: Test System: AMES SALMONELLA TYPHIMURIUM, Strain/Indicator: TA98, Metabolic Activation: NONE, Method: PREINCUBATION

As to `c1ccc2c(c1)CCCC2`, the mutagenic call was “inactive; negative” under setting [1]; “inactive; negative” under setting [2]; “inactive; negative” under setting [3]; “inactive; negative” under setting [4]; “inactive; negative” under setting [5]; “inactive; negative” under setting [6]. For the same compound, the mutagenic call is “inactive; negative” (Test System: AMES SALMONELLA TYPHIMURIUM, Strain/Indicator: TA1535, Metabolic Activation: HAMSTER, LIVER, S-9, AROCLOR 1254, Method: STANDARD PLATE); “inactive; negative” (Test System: AMES SALMONELLA TYPHIMURIUM, Strain/Indicator: TA1535, Metabolic Activation: NONE, Method: STANDARD PLATE); “inactive; negative” (Test System: AMES SALMONELLA TYPHIMURIUM, Strain/Indicator: TA1535, Metabolic Activation: RAT, LIVER, S-9, AROCLOR 1254, Method: STANDARD PLATE); “inactive; negative” (Test System: AMES SALMONELLA TYPHIMURIUM, Strain/Indicator: TA1537, Metabolic Activation: HAMSTER, LIVER, S-9, AROCLOR 1254, Method: STANDARD PLATE); “inactive; negative” (Test System: AMES SALMONELLA TYPHIMURIUM, Strain/Indicator: TA1537, Metabolic Activation: NONE, Method: STANDARD PLATE); “inactive; negative” (Test System: AMES SALMONELLA TYPHIMURIUM, Strain/Indicator: TA1537, Metabolic Activation: RAT, LIVER, S-9, AROCLOR 1254, Method: STANDARD PLATE). Moreover, the mutagenic call was “inactive; negative” (Test System: AMES SALMONELLA TYPHIMURIUM, Strain/Indicator: TA1538, Metabolic Activation: HAMSTER, LIVER, S-9, AROCLOR 1254, Method: STANDARD PLATE); “inactive; negative” under setting [7]; “inactive; negative” (Test System: AMES SALMONELLA TYPHIMURIUM, Strain/Indicator: TA1538, Metabolic Activation: RAT, LIVER, S-9, AROCLOR 1254, Method: STANDARD PLATE); “active; positive. reevaluation of results: equivocal” under setting [8].
`N#CCCO`: the mutagenic call reads like this: (Test System: AMES SALMONELLA TYPHIMURIUM, Strain/Indicator: TA97, Metabolic Activation: HAMSTER, LIVER, S-9, AROCLOR 1254 (10 OR 30%), Method: PREINCUBATION) “inactive; negative”; (Test System: AMES SALMONELLA TYPHIMURIUM, Strain/Indicator: TA97, Metabolic Activation: NONE, Method: PREINCUBATION) “inactive; negative”; (Test System: AMES SALMONELLA TYPHIMURIUM, Strain/Indicator: TA97, Metabolic Activation: RAT, LIVER, S-9, AROCLOR 1254 (10 OR 30%), Method: PREINCUBATION) “inactive; negative”; (Test System: AMES SALMONELLA TYPHIMURIUM, Strain/Indicator: TA98, Metabolic Activation: HAMSTER, LIVER, S-9, AROCLOR 1254 (10 OR 30%), Method: PREINCUBATION) “inactive; negative”; under setting [9], “inactive; negative”; (Test System: AMES SALMONELLA TYPHIMURIUM, Strain/Indicator: TA98, Metabolic Activation: RAT, LIVER, S-9, AROCLOR 1254 (10 OR 30%), Method: PREINCUBATION) “inactive; negative”. The mutagenic call is “inactive; negative” (Test System: AMES SALMONELLA TYPHIMURIUM, Strain/Indicator: TA100, Metabolic Activation: HAMSTER, LIVER, S-9, AROCLOR 1254 (10 OR 30%), Method: PREINCUBATION); “inactive; negative” (Test System: AMES SALMONELLA TYPHIMURIUM, Strain/Indicator: TA100, Metabolic Activation: NONE, Method: PREINCUBATION); “inactive; negative” (Test System: AMES SALMONELLA TYPHIMURIUM, Strain/Indicator: TA100, Metabolic Activation: RAT, LIVER, S-9, AROCLOR 1254 (10 OR 30%), Method: PREINCUBATION); “inactive; negative” (Test System: AMES SALMONELLA TYPHIMURIUM, Strain/Indicator: TA1535, Metabolic Activation: HAMSTER, LIVER, S-9, AROCLOR 1254 (10 OR 30%), Method: PREINCUBATION); “inactive; negative” (Test System: AMES SALMONELLA TYPHIMURIUM, Strain/Indicator: TA1535, Metabolic Activation: NONE, Method: PREINCUBATION); “inactive; negative” (Test System: AMES SALMONELLA TYPHIMURIUM, Strain/Indicator: TA1535, Metabolic Activation: RAT, LIVER, S-9, AROCLOR 1254 (10 OR 30%), Method: PREINCUBATION).
On to `C[C@@H]1O[C@@H](O[C@H]2C[C@](O)(C(=O)CO)Cc3c(O)c4c(c(O)c32)C(=O)c2ccccc2C4=O)C[C@H](N)[C@@H]1O`, for which the mutagenic call (Test System: AMES SALMONELLA TYPHIMURIUM, Strain/Indicator: GW257, Metabolic Activation: NONE, Method: STANDARD PLATE) was “active; positive”; the mutagenic call (Test System: AMES SALMONELLA TYPHIMURIUM, Strain/Indicator: TA97, Metabolic Activation: NONE, Method: STANDARD PLATE) was “inactive; negative”; the mutagenic call under setting [9] was “active; positive”; the mutagenic call under setting [2] was “active; positive”; the mutagenic call under setting [5] was “active; positive”; the mutagenic call (Test System: AMES SALMONELLA TYPHIMURIUM, Strain/Indicator: TA104, Metabolic Activation: NONE, Method: STANDARD PLATE) was “inactive; negative”. Besides, the mutagenic call under setting [7] was “active; positive”; the mutagenic call (Test System: AMES SALMONELLA TYPHIMURIUM, Strain/Indicator: TA2637, Metabolic Activation: NONE, Method: STANDARD PLATE) is “active; positive”; the mutagenic call (Test System: CHINESE HAMSTER V-79, Strain/Indicator: V-79/6-THIOGUANINE, Metabolic Activation: NONE, Method: SUSPENSION/PLATE) was “active; positive”; the mutagenic call (Test System: CHINESE HAMSTER V-79, Strain/Indicator: V-79/6-THIOGUANINE, Metabolic Activation: RAT, LIVER, HOMOGENATE, Method: SUSPENSION/PLATE) was “inactive; negative”; the mutagenic call (Test System: UDS RAT HEPATOCYTES, Strain/Indicator: THY INCORP, Metabolic Activation: NONE, Method: AUTOMATIC COLONY COUNTER) is “active; positive”.
As to `CCCCB(CCCC)CCCC`, the mutagenic call is “active; positive” under setting [1]; “active; positive” under setting [3]; “active; positive” under setting [4]; “inactive; negative. reevaluation of results: negative” (Test System: MOUSE LYMPHOMA, Strain/Indicator: L5178Y (TK+/TK-), Metabolic Activation: NONE, Method: SUSPENSION/PLATE); “inactive; negative. reevaluation of results: negative” under setting [8].
Consider `[Br][Pb][Br]`, for which the mutagenic call is, setting by setting: (Test System: AMES SALMONELLA TYPHIMURIUM, Strain/Indicator: TA1535, Metabolic Activation: NONE) “active; positive”; (Test System: AMES SALMONELLA TYPHIMURIUM, Strain/Indicator: TA1537, Metabolic Activation: NONE) “inactive; negative”.
Take `CC(=O)ON(C(C)=O)c1ccc(Oc2ccccc2)cc1`: the mutagenic call (Test System: AMES SALMONELLA TYPHIMURIUM, Strain/Indicator: TA100, Metabolic Activation: GUINEA PIG, LIVER, S-9, KANECLOR 500, Method: STANDARD PLATE) was “active; positive”.
Turning to `O=C1c2ccc3ccccc3c2-c2c1ccc1ccccc21`, the mutagenic call is, setting by setting: under setting [2], “inactive; negative”; under setting [3], “active; positive”; under setting [5], “inactive; negative”; under setting [6], “active; positive”.
